{
  "source": "patent US9475789B2",
  "about": "“Use of polyenylpyrrole derivatives for treating inflammation” (WELLHEAD BIOLOGICAL TECHNOLOGY CORP., priority 2014, dated 2016)",
  "key": {"TNF-α": {"test_system": "TNF-α", "assay": "TNF-α ELISA, LPS-activated JAWSII dendritic cells", "format": "cell-based, murine", "details": "LPS 1 μg/ml 24 h", "procedure": "(A) J774A.1 macrophages (4×10^5/ml), (B) peritoneal macrophages (4×10^5/ml), and (C) JAWSII dendritic cells (4×10^5/ml) were incubated with compound 1h or DMSO for 30 min followed by stimulating with LPS (1 μg/ml) for 24 h, then IL-6 and TNF-α concentration in culture medium were assayed by ELISA. The data are expressed as the mean±SD for three separate experiments. *, **, and *** indicate a significant difference at the level of p<0.05, p<0.01, p<0.001 respectively compared to LPS group.\nThe effects of tested samples on IL-1β, TNF-α and IL-6 production were measured by ELISA according to the manufacturer's instruction. In brief, 50 μl of biotinylated antibody reagent and 50 μl of supernatant were added to an anti-mouse IL-1β, TNF-α and IL-6 precoated stripwell plate, and incubated at room temperature for 2 h. After washing the plate three times with washing buffer, 100 μl of diluted streptavidin-HRP concentrate was added to each well and incubated at room temperature for 30 min. The washing process was repeated; then 100 μl of a premixed tetramethylbenzidine substrate solution was added to each well and developed at room temperature in the dark for 30 min. Following the addition of 100 μl of stop solution to each well to stop the reaction, the absorbance of the plate was measured by a microplate reader at 450 nm wavelength."}, "[1]": {"test_system": "NLRP3 inflammasome-mediated IL-1β secretion", "assay": "IL-1β ELISA, LPS+ATP-activated J774A.1 macrophages (NLRP3 inflammasome)", "format": "cell-based, mouse", "procedure": "(§1) (A) J774A.1 macrophages (1×10^6/ml) and (B) peritoneal macrophages (1×10^5/ml) were incubated with compound 1h for 30 min followed by LPS (1 μg/ml) stimulating for 5.5 h, then the cells were stimulated with ATP (5 mM) for an additional 30 min. The IL-1β in the culture medium was measured by ELISA and the expression of active caspase-1 (p10) was measured by Western blot. In (C) and (D), J774A.1 macrophages (1×10^6/ml) were incubated with LPS (1 μg/ml) for 5.5 h, then cells were incubated with compound 1h for 30 min followed by stimulating with ATP (5 mM) for an additional 30 min. The IL-1β and IL-6 in the culture medium were measured by ELISA and the expression of active caspase-1 (p10) was measured by Western blot. In (E), J774A.1 macrophages (1×10^6/ml) were incubated with compound 1h for 30 min followed by LPS (1 μg/ml) stimulating for 6 h. The expression of NLRP3 and proIL-1β were measured by Western blot.\n(§2) The effects of tested samples on IL-1β, TNF-α and IL-6 production were measured by ELISA according to the manufacturer's instruction. […] Following the addition of 100 μl of stop solution to each well to stop the reaction, the absorbance of the plate was measured by a microplate reader at 450 nm wavelength."}, "IL-1β": {"test_system": "IL-1β", "assay": "IL-1β ELISA, LPS+ATP-activated peritoneal macrophages", "format": "cell-based, C57BL/6 mice", "details": "primary peritoneal macrophages; compound before LPS and ATP", "procedure": "as §1, §2"}, "ERK1/2, JNK1/2, p38": {"test_system": "ERK1/2, JNK1/2, p38", "assay": "Western blot of MAPK phosphorylation, LPS-activated RAW 264.7 macrophages", "format": "cell-based, murine", "details": "compound 1h 20 μM", "procedure": "In (A), RAW 264.7 macrophages (5×10^5/ml) were incubated with compound 1h (20 μM), N-acetyl cysteine (NAC; 10 mM) or DMSO (vehicle) for 30 min followed by LPS (1 μg/ml) stimulating for the indicated time, then ROS levels were measured by detection of the fluorescence intensity of the fluorophore carboxyl-DCF and expressed relative to those at time zero. In (B), RAW 264.7 macrophages (5×10^5/ml) were incubated with compound 1h (20 μM) or DMSO for 30 min followed by LPS (1 μg/ml) stimulating for 0-60 min, then the phosphorylation levels of ERK1/2, JNK1/2, p38 were analyzed by Western blot. In (C), J774A.1 macrophages (5×10^5/ml) were incubated with compound 1h or DMSO for 30 min followed by LPS (1 μg/ml) stimulating for 20 min, then the phosphorylation levels of ERK1/2, JNK1/2, p38 were analyzed by Western blot.\n(§3) Whole cell lysates were separated by SDS-PAGE and electrotransferred to a PVDF membrane. The membranes were incubated in blocking solution—5% nonfat milk in phosphate buffered saline with 0.1% Tween 20—at room temperature for 1 h. Each membrane was incubated with a specific primary antibody at room temperature for 2 h. After washing three times in PBS with 0.1% Tween 20, the membrane was incubated with an HRP-conjugated secondary antibody directed against the primary antibody. The membrane was developed by an enhanced chemiluminescence Western blot detection system."}, "IKK-α and IκB-α [2]": {"test_system": "IKK-α and IκB-α", "assay": "Western blot of IKK-α and IκB-α, LPS-activated RAW 264.7 macrophages", "format": "cell-based, murine", "details": "LPS-activated RAW 264.7, LPS 20 min", "procedure": "(§4) (A) RAW 264.7 macrophages (5×10^5/ml) or (B) J774A.1 macrophages (5×10^5/ml) were incubated with compound 1h or DMSO for 30 min followed by LPS (1 μg/ml) stimulating for 20 min, then the phosphorylation levels of IKK-α and IκB-α and total IκB-α protein level were analyzed by Western blot. (C) RAW 264.7 macrophages (5×10^5/ml) or (D) J774A.1 macrophages (5×10^5/ml) were incubated with compound 1h (10-40 μM) or DMSO for 30 min followed by LPS (1 μg/ml) stimulating for 20 min, then the nuclear translocation of NF-κB were analyzed by ELISA. (E) RAW-Blue™ cells (5×10^5/ml) were incubated with compound 1h (2.5-40 μM) or DMSO for 30 min followed by LPS (1 μg/ml) stimulating for 24 h, then the SEAP activity was measured by QUANTI-Blue™. […] In (C), (D), and (E), the data are expressed as the mean±SD for three separate experiments. *, **, and *** indicate a significant difference at the level of p<0.05, p<0.01, and p<0.001 respectively compared to LPS group.\nas §3"}, "IKK-α and IκB-α [3]": {"test_system": "IKK-α and IκB-α", "assay": "Western blot of IKK-α and IκB-α, LPS-activated J774A.1 macrophages", "format": "cell-based, murine", "details": "LPS-activated J774A.1, LPS 20 min", "procedure": "as §4, §3"}, "NF-κB p65": {"test_system": "NF-κB p65", "assay": "NF-κB p65 nuclear translocation ELISA, RAW 264.7 macrophages", "format": "cell-based, murine", "details": "compound 1h 10-40 μM, LPS 20 min", "procedure": "as §4\nNuclear protein from RAW 264.7 and J774A.1 cells were extracted using a Nuclear Extract Kit (Active Motif) according to the manufacturer's instructions and nuclear NF-κB p65 activation quantified using an ELISA-based TransAM NF-κB kit (Active Motif, Tokyo, Japan) according to the manufacturer's protocol by reading the absorbance with a microplate absorbance reader (Bio-Rad Laboratories, Inc) at 450 nm with a reference wavelength of 655 nm."}},
  "data": [
    {"smiles": "O=c1cc(O)cc(/C=C/C=C/C=C/C=C/c2[nH]ccc2Cl)o1", "note": "[Compound 1h]", "values": [
      {"measurement": "secretion of TNF-α", "setting": "TNF-α", "value": "also reduced"},
      {"measurement": "IL-1β secretion", "setting": "[1]; J774A.1, compound before LPS and ATP treatment", "value": "significantly inhibited"},
      {"measurement": "IL-1β secretion", "setting": "[1]; LPS-primed J774A.1, compound 30 min before ATP stimulation", "value": "inhibited IL-1β secretion"},
      {"measurement": "IL-1β inhibition activity", "setting": "IL-1β", "value": "confirmed"},
      {"measurement": "phosphorylation level of ERK1/2", "setting": "ERK1/2, JNK1/2, p38", "value": "inhibited"},
      {"measurement": "phosphorylation level of JNK1/2", "setting": "ERK1/2, JNK1/2, p38", "value": "inhibited"},
      {"measurement": "phosphorylation level of p38", "setting": "ERK1/2, JNK1/2, p38", "value": "inhibited"},
      {"measurement": "IκB-α degradation", "setting": "IKK-α and IκB-α [2]", "value": "partially rescued"},
      {"measurement": "phosphorylation level of IKK-α", "setting": "IKK-α and IκB-α [2]", "value": "inhibited"},
      {"measurement": "phosphorylation level of IκB-α", "setting": "IKK-α and IκB-α [2]", "value": "inhibited"},
      {"measurement": "IκB-α degradation", "setting": "IKK-α and IκB-α [3]", "value": "partially rescued"},
      {"measurement": "phosphorylation level of IKK-α", "setting": "IKK-α and IκB-α [3]", "value": "inhibited"},
      {"measurement": "phosphorylation level of IκB-α", "setting": "IKK-α and IκB-α [3]", "value": "inhibited"},
      {"measurement": "NF-κB nuclear translocation", "setting": "NF-κB p65", "value": "inhibited NF-κB nuclear translocation"}
    ]}
  ]
}
